# Experimental data taken from ChEMBL document CHEMBL5096146, “Porphyrin and phthalocyanine photosensitizers designed for targeted photodynamic therapy of colorectal cancer” (Bioorg Med Chem, 2021).
# Experiments:
# [1] = system: HT-29; assay: Photodynamic cytotoxicity against human HT-29 cells assessed as reduction in cell viability incubated for 3 hrs followed by fresh medium replacement and subsequent white LED irradiation measured after 24 hrs by MTT assay relative to control; type: functional
# [2] = system: HT-29; assay: Photodynamic cytotoxicity against human HT-29 cells assessed as reduction in cell viability incubated for 3 hrs followed by fresh medium replacement and subsequent blue LED irradiation measured after 24 hrs by MTT assay relative to control; type: functional
# [3] = system: HT-29; assay: Photodynamic cytotoxicity against human HT-29 cells assessed as reduction in cell viability incubated for 3 hrs followed by fresh medium replacement and subsequent red LED irradiation measured after 24 hrs by MTT assay relative to control; type: functional
# [4] = system: HT-29; assay: Antitumor activity against human HT-29 cells xenografted in BALB/c mouse assessed as tumor growth inhibition at 250 mg/kg, ip followed by LED irradiation with repeated compound irradiation for thrice upto 3 weeks relative to control; type: functional; conditions: HT-29, light or radiation study, 504 h, read-out: TGI
# [5] = system: WiDr; assay: Photocytotoxicity against human WiDr cells assessed as lethal dose incubated for 18 hrs followed by replacement of medium containing compound with 48 hrs incubation and subsequent light irradiation of 13.5 mW/cm2 at 435 nm measured after 48 hrs by MTT assay; type: functional; conditions: light or radiation study, read-out: LD50 (the source's name)
# [6] = system: WiDr; assay: Photodynamic cytotoxicity against human WiDr cells assessed as reduction in cell viability at 50 nM incubated for 24 hrs followed by compound washout and 7.5 mW/cm2 light irradiation measured after 24 hrs by MTT assay relative to control; type: functional
# [7] = system: WiDr; assay: Photodynamic cytotoxicity against human WiDr cells assessed as cell growth inhibition measured after 24 hrs of 10J light irradiation by flow cytometry; type: functional, cell-based; conditions: light or radiation study
# [8] = system: WiDr; assay: Photodynamic cytotoxicity against human WiDr cells assessed as cell growth inhibition measured after 72 hrs of 10J light irradiation by flow cytometry; type: functional, cell-based; conditions: light or radiation study
# [9] = system: HT-29; assay: Photodynamic cytotoxicity against human HT-29 cells assessed as reduction in cell viability at 19.4 J/cm2 light irradiation followed by immediate fresh medium replacement measured after 24 hrs by MTT assay relative to control; type: functional
# [10] = system: HT-29; assay: Photodynamic cytotoxicity against human HT-29 cells assessed as reduction in cell viability at 19.4 J/cm2 light irradiation >570 nm followed by immediate fresh medium replacement measured after 24 hrs by MTT assay relative to control; type: functional
# [11] = system: HT-29; assay: Photocytotoxicity against human HT-29 cells assessed as lethal dose incubated for 4 hrs followed by 3 J/cm2 LED irradiation and subsequent compound replenishment measured after 20 hrs by MTT assay; type: functional
smiles,measurement,setting,value
C=CC1=C(C)c2cc3[nH]c(cc4nc(cc5[nH]c(cc1n2)c(C)c5C=C)C(C)=C4CCC(=O)O)c(CCC(=O)O)c3C,Activity,[1],40%
same,Activity,[2],40%
same,Activity,[3],20%
same,inhibition in vivo at 250 mg/kg,[4],88%
C[N+](C)(C)c1ccc(-c2c3nc(c(-c4ccc([N+](C)(C)C)cc4)c4ccc([nH]4)c(-c4ccc([N+](C)(C)C)cc4)c4nc(c(-c5ccc([N+](C)(C)C)cc5)c5ccc2[nH]5)C=C4)C=C3)cc1,CC50,[5],2 µM
O=S(=O)(O)c1ccc(-c2c3nc(c(-c4ccc(S(=O)(=O)O)cc4)c4ccc([nH]4)c(-c4ccc(S(=O)(=O)O)cc4)c4nc(c(-c5ccc(S(=O)(=O)O)cc5)c5ccc2[nH]5)C=C4)C=C3)cc1,CC50,[5],100 µM
O=C(O)c1ccc(-c2c3nc(c(-c4ccc(C(=O)O)cc4)c4ccc([nH]4)c(-c4ccc(C(=O)O)cc4)c4nc(c(-c5ccc(C(=O)O)cc5)c5ccc2[nH]5)C=C4)C=C3)cc1,CC50,[5],15 µM
Oc1ccc(-c2c3nc(c(-c4ccc(O)cc4)c4ccc([nH]4)c(-c4ccc(O)cc4)c4nc(c(-c5ccc(O)cc5)c5ccc2[nH]5)C=C4)C=C3)cc1,CC50,[5],0.2 µM
Oc1ccc(Br)c(-c2c3nc(cc4ccc([nH]4)c(-c4cc(O)ccc4Br)c4nc(cc5ccc2[nH]5)C=C4)C=C3)c1,Activity,[6],>50%
same,IC50,[7],0.18 µM
same,IC50,[8],0.14 µM
Oc1ccc(Cl)c(-c2c3nc(cc4ccc([nH]4)c(-c4cc(O)ccc4Cl)c4nc(cc5ccc2[nH]5)C=C4)C=C3)c1,Activity,[6],>50%
Oc1ccc(Br)c(-c2c3nc(c(-c4cc(O)ccc4Br)c4ccc([nH]4)c(-c4cc(O)ccc4Br)c4nc(c(-c5cc(O)ccc5Br)c5ccc2[nH]5)C=C4)C=C3)c1,IC50,[7],0.464 µM
same,IC50,[8],0.62 µM
C1=Cc2nc1c(-c1ccc3ccccc3n1)c1ccc([nH]1)c(-c1ccc3ccccc3n1)c1nc(c(-c3ccc4ccccc4n3)c3ccc([nH]3)c2-c2ccc3ccccc3n2)C=C1,Activity,[9],80%
same,Activity,[10],10%
Oc1cccc(-c2c3nc(cc4ccc([nH]4)c(-c4cccc(O)c4)c4nc(cc5ccc2[nH]5)C=C4)C=C3)c1,Activity,[6],>50%
Oc1cccc(-c2c3nc(cc4ccc([nH]4)c(-c4cccc(O)c4I)c4nc(cc5ccc2[nH]5)C=C4)C=C3)c1I,Activity,[6],>50%
Oc1cc(-c2c3nc(cc4ccc([nH]4)c(-c4ccc(I)c(O)c4)c4nc(cc5ccc2[nH]5)C=C4)C=C3)ccc1I,Activity,[6],>50%
Oc1cccc(-c2c3nc(c(-c4cccc(O)c4)c4ccc([nH]4)c(-c4cccc(O)c4)c4nc(c(-c5cccc(O)c5)c5ccc2[nH]5)CC4)C=C3)c1 [TEMOPORFIN],LD70,[11],0.6 µg/mL
same,CC50,"[11]; Homo sapiens, HT-29, light or radiation study, read-out: LD50 (the source's name)",0.3 mg/L
